# Measurements: patent US8410068B2, “Compounds for the treatment or alleviation of edema, and methods for their use” (Index Pharmaceuticals AB, priority 2007, dated 2013)
# Assays:
# [1] = system: tetradecanoylphorbol 13-acetate (TPA) induced ear edema; experiment: TPA-induced ear edema model; type: in vivo, mice; settings: for AUC reduction (%) TPA: 10 μg one single s.c. injection 20 minutes before TPA, compared to PBS control; for Peak reduction (%) TPA: 10 μg subcutaneously 20 minutes before induction of edema
# Experimental: A stock solution of TPA was prepared by dissolving TPA in DMSO, 1 mg/mL, and was stored frozen at −80° C. For study B-E, a working solution was prepared with 200 μL of the TPA stock solution added to 800 μL acetone. The working solution was used the same day as it was prepared.
# Each cage was identified by a cage card marked with study number, group number, ethical approval number, sex and animal ear numbers. The animals were individually marked on the tail with transverse lines corresponding to the animals' number, using a permanent-ink felt pen. An illustration of the protocols used for the different treatments is outlined in Table 4. The compounds were tested according to the same protocols with necessary modifications.
# Intraperitoneal (i.p.) injections were performed by giving 100 μL in the lower right quadrant of the abdomen. Subcutaneous injections were done with 100 μL in the neck region. Intranasal administration was performed by letting the mouse inhale droplets into the nostrils, total volume 40 μL. All administrations were done on non-anesthetized mice.
# (§1) Both outer ears of a non-anesthetized mouse were washed with mild soap (Palmolive, Sweden) using a soft tooth brush, the ears were dried with tissue and cleaned with tissue soaked with acetone. After allowing the acetone to evaporate, TPA or AA was applied on both sides, 10 μL, on each side of the ear with care to cover the whole ear. The mouse was held for 20 seconds to allow the solvent to evaporate.
# Intraperitoneal injections were given in the lower right quadrant of the abdomen with the animal held in a supine position. Subcutaneous (s.c.) injections were given in the neck of the animals. Intranasal administrations were given to mice held in a slightly reclining position. With an adjustable micro-pipette 40 μL of the test substance was given in droplets on the nostrils and the mouse was allowed to aspirate at free will.
# (§2) The ears of non-anesthetized mice were measured at different time points for up to 96 hours after the TPA was administered, or up to 24 hours for the AA model. The first measurements were done before the edema was induced. The thickness was recorded with a spring loaded dial micrometer (Limit, Thickness Gauge, accuracy 0.01 mm, contact area Ø6 mm, Luna AB, Allingsås, Sweden) in triplicates at all time points per ear.
# (§3) The average thickness for both ears on a mouse was calculated and compared to the average thickness of the ears at the starting time point. The value obtained at the start of the experiment was set as 100%. The peak values and area under the curve (AUC) values for the treatment groups were calculated and compared to the inflamed control group, treated with PBS (set as 100%), and expressed as a percentage change (Δ% AUC).
# (§4) Area under the curve (AUC) with base line set as 100 was calculated using GraphPad Prism version 4.03 for Windows (GraphPad Software, San Diego Calif. USA, www.graphpad.com).
# AUC reduction and P-values were calculated against the positive control (TPA or AA+PBS).
# [2] = system: OVA induced airway inflammation; experiment: Ovalbumin (OVA) induced allergic airway inflammation, BAL fluid cell counts; type: in vivo, Balb/c mice; settings: prophylactic protocol, 50 μg/animal intranasal on day 16 and 21; for cell migration into BAL fluid: second experiment
# Experimental: Mice were sensitized intraperitoneally with 200 μL OVA/aluminium hydroxide gel (1:3) on day 0 and 12 (see FIG. 6). OVA (chicken egg albumin grade V, Sigma, St. Louis, Mo.) was dissolved in saline and mixed with aluminium hydroxide gel to a concentration of 50 μg/mL by rotation at 4° C. for 3 h. On days 23, 26, 30 and 33 (see FIG. 6), mice were challenged in the lungs by inhalation of aerosolized OVA for 30 minutes using a Batelle exposure chamber. Aerosols were generated by a compressed-air nebulizer (Collison 6-jet) at airflow 7.4 L/min using a nebulizer concentration of 10 mg/mL OVA dissolved in PBS (Sigma, St Louis, Mo., USA). The control group with non-sensitized animals received no other treatment than aerosolized OVA at days 23, 26, 30 and 33.
# In this OVA model (FIG. 6), a total of 4 oligonucleotides were tested, IDX9025, IDX9038, IDX9053 (Table 1, SEQ ID NO 2-4) and IDX0150 (Table 3, SEQ ID NO 11). The oligonucleotides were synthesized by biomers.net GmbH, Ulm, Germany and stored frozen at −20° C. The oligonucleotides were diluted with PBS to the working concentration (1,247 μg/μL) and kept at −20° C. until the first day of instillation, thereafter they were placed at 4° C.
# In a first experiment, both prophylactic and therapeutic protocols were tested (see FIG. 6). The drug treatment consisted of intranasal instillations of IDX0150 (1,247 μg/μL, provided by InDex Pharmaceuticals AB, Stockholm, Sweden) on days 16 and 21 (prophylactic protocol), on days 30 and 33 (therapeutic protocol A) or on days 30 and 34 (therapeutic protocol B). The instillations in the therapeutic protocols (A & B) on days 30 and 33 were given 4 h after aerosol challenge. The second instillation in protocol B on day 34 was given 24 h after the last aerosol challenge. The drug was administered in 40 μL PBS giving a dose of ˜50 μg/mice (49.88 μg/mice). The two sensitized sham-treatment groups were instilled with PBS, the same total volume as for the treatment groups, according to either the prophylactic protocol (days 16 and 21) or to the therapeutic protocol A (days 30 and 33).
# In a second experiment, since administration of IDX0150 in the first experiment using prophylactic protocol (FIG. 6) gave a significant reduction of airway inflammation (FIG. 7), three other substances were tested with the same protocol. The drug treatment consisted of intranasal instillations of IDX9025, IDX9038 and IDX9053 (Table 1) (1,247 μg/μL, provided by InDex Pharmaceuticals AB) on days 16 and 21 (see FIG. 6, prophylactic protocol). All substances were administered in 40 μL PBS giving a dose of ˜50 μg/mice (49.88 μg/mice). The two sensitized sham-treatment groups were instilled with PBS, the same total volume as for the treatment groups, according to the prophylactic protocol (days 16 and 21).
# Mice were killed by cervical dislocation 42 h after the last OVA aerosol challenge. The trachea was cannulated with polyethylene tubing (Becton Dickinson, Sparks, Md., USA) and bronchoalveolar lavage (BAL) was performed using 4×1 mL aliquots of ice-cold Hank's balanced salt solution (HBSS) (Sigma, St Louis, Mo., USA). The BAL fluid was centrifuged (400 g, 10 min, 4° C.) and the BAL fluid cells were resuspended in 0.4 mL PBS. The total number of leukocytes counted using tryphan blue exclusion in a Barker chamber. Duplicate Cytospin (Cytospin 3, Shandon, Runcorn, UK) preparations of BAL fluid cells were stained with May Grünewald Giemsa for differential counts, using standard morphological criteria.
# Statistical comparisons were performed using One-way analysis of variance (ANOVA) using Dunnett's post hoc correction to compare with sensitized PBS treated control mice (GraphPad Prism 3). Data are shown as mean±standard deviation. P<0.05 was considered significant.
# [3] = system: arachidonic acid (AA) induced ear edema; experiment: Arachidonic acid (AA) induced ear edema model; type: in vivo, mice
# Experimental: A stock solution of AA was prepared by diluting AA in acetone, 4 mg/10 μL, and was stored frozen at −80° C. A final working solution, 1 mg/10 μL, in acetone was prepared. The working solution was used within one hour after preparation.
# as §1, §2, §3, §4
# In addition to the experiments done with the control compounds and IDX0001, all other test compounds were investigated in a similar fashion in the TPA and/or AA ear edema models, where the test compounds were given subcutaneously (10 μg) 20 minutes before induction of edema. The results were expressed as reduction of peak value and reduction of area under curve (AUC) in Table 5.
Substance,AUC reduction (%) TPA [1] [%],Peak reduction (%) TPA [1] [%],cell migration into BAL fluid [2],"AUC reduction (%) AA ([3]; 10 μg one single s.c. injection 20 minutes before AA, compared to PBS control) [%]",Peak reduction (%) AA ([3]; 10 μg subcutaneously 20 minutes before induction of edema) [%],migration of eosinophils into the BAL fluid ([2]; P<0.001),migration of leukocytes into the BAL fluid ([2]; P<0.05)
"G*G*G*TCGTCTG*C*G*G (GGGTCGTCTGCGG; DNA, linkages s3 o6 s3 (s phosphorothioate, o phosphodiester), methylation of C not given here) [IDX9053]",−39.0,−30.5,no significant reduction of cell migration,–,–,–,–
"T*G*C*CATTCGTCGATTTCGTC*G*A*T (TGCCATTCGTCGATTTCGTCGAT; DNA, linkages s3 o16 s3 (s phosphorothioate, o phosphodiester), methylation of C not given here) [IDX9025, oligonucleotide; * = phosphorothioate modification]",−57.8,−23.5,no significant reduction of cell migration,−81.9,−14.9,–,–
"T*C*G*TCGTTCGGCCGATCG*T*C*C (TCGTCGTTCGGCCGATCGTCC; DNA, linkages s3 o14 s3 (s phosphorothioate, o phosphodiester), methylation of C not given here) [IDX9038, oligonucleotide; * = phosphorothioate modification]",−47.4,−37.9,–,–,–,significantly reduce,significantly reduce
